Reference: patent US20260159523A1, “PESTICIDALLY ACTIVE HETEROCYCLIC DERIVATIVES WITH SULFUR CONTAINING SUBSTITUENTS” (SYNGENTA CROP PROTECTION AG, priority 2022, published 2026)

Legend:
Format in all cases: in vivo
[1] = system: Myzus persicae; assay: Activity against Myzus persicae (green peach aphid), feeding/contact activity; conditions: foliar, 144 h, application rate 200 ppm, sunflower leaf discs, mixed ages, 6 days after infestation
Protocol: Activity Against Myzus persicae (Green Peach Aphid) Feeding/Contact Activity
Sunflower leaf discs were placed onto agar in a 24-well microtiter plate and sprayed with aqueous test solutions prepared from 10'000 ppm DMSO stock solutions. After drying, the leaf discs were infested with an aphid population of mixed ages. The samples were assessed for mortality 6 days after infestation.

[2] = system: Spodoptera littoralis; assay: Activity against Spodoptera littoralis (Egyptian cotton leaf worm), cotton leaf discs; conditions: foliar, 72 h, application rate 200 ppm, L1 larvae, 3 days after infestation
Protocol: Activity Against Spodoptera littoralis (Egyptian Cotton Leaf Worm)
Cotton leaf discs were placed onto agar in 24-well microtiter plates and sprayed with aqueous test solutions prepared from 10'000 ppm DMSO stock solutions. After drying the leaf discs were infested with five L1 larvae. The samples were assessed for mortality, anti-feeding effect, and growth inhibition in comparison to untreated samples 3 days after infestation. Control of Spodoptera littoralis by a test sample is given when at least one of the categories mortality, anti-feedant effect, and growth inhibition is higher than the untreated sample.

[3] = system: Diabrotica balteata; assay: Activity against Diabrotica balteata (corn root worm), maize sprouts; conditions: 96 h, application rate 200 ppm, L2 larvae, 4 days after infestation, read-out: effect in at least one of the two categories (mortality or growth inhibition)
Protocol: Activity Against Diabrotica balteata (Corn Root Worm)
Maize sprouts placed onto an agar layer in 24-well microtiter plates were treated with aqueous test solutions prepared from 10'000 ppm DMSO stock solutions by spraying. After drying, the plates were infested with L2 larvae (6 to 10 per well). The samples were assessed for mortality and growth inhibition in comparison to untreated samples 4 days after infestation.

[4] = system: Euschistus heros; assay: Activity against Euschistus heros (neotropical brown stink bug), soybean leaves; conditions: 120 h, application rate 200 ppm, N2 nymphs, 5 days after infestation, read-out: effect in at least one of the two categories (mortality or growth inhibition)
Protocol: Activity Against Euschistus heros (Neotropical Brown Stink Bug)
Soybean leaves on agar in 24-well microtiter plates were sprayed with aqueous test solutions prepared from 10'000 ppm DMSO stock solutions. After drying the leaves were infested with N2 nymphs. The samples were assessed for mortality and growth inhibition in comparison to untreated samples 5 days after infestation.

[5] = system: Plutella xylostella; assay: Activity against Plutella xylostella (diamond back moth), artificial diet; conditions: 192 h, application rate 200 ppm, eggs, 8 days after infestation, read-out: effect in at least one of the two categories (mortality or growth inhibition)
Protocol: Activity Against Plutella xylostella (Diamond Back Moth)
24-well microtiter plates with artificial diet were treated with aqueous test solutions prepared from 10'000 ppm DMSO stock solutions by pipetting. After drying, Plutella eggs were pipetted through a plastic stencil onto a gel blotting paper and the plate was closed with it. The samples were assessed for mortality and growth inhibition in comparison to untreated samples 8 days after infestation.

[6] = system: Chilo suppressalis; assay: Activity against Chilo suppressalis (striped rice stemborer), artificial diet; conditions: 144 h, application rate 200 ppm, L2 larvae, 6 days after infestation
Protocol: Activity Against Chilo suppressalis (Striped Rice Stemborer)
24-well microtiter plates with artificial diet were treated with aqueous test solutions prepared from 10'000 ppm DMSO stock solutions by pipetting. After drying, the plates were infested with L2 larvae (6-8 per well). The samples were assessed for mortality, anti-feeding effect, and growth inhibition in comparison to untreated samples 6 days after infestation. Control of Chilo suppressalis by a test sample is given when at least one of the categories mortality, anti-feedant effect, and growth inhibition is higher than the untreated sample.

[7] = system: Myzus persicae; assay: Activity against Myzus persicae (green peach aphid), systemic activity; conditions: 144 h, test rate 24 ppm, pea seedling roots in test solution, 6 days
Protocol: Activity Against Myzus persicae (Green Peach Aphid) Systemic Activity
Roots of pea seedlings infested with an aphid population of mixed ages were placed directly into aqueous test solutions prepared from 10'000 DMSO stock solutions. The samples were assessed for mortality 6 days after placing seedlings into test solutions.

CCS(=O)(=O)c1cc(C2(C#N)CC2)cnc1-c1coc2ccc(-c3cc(F)cc(F)c3)cc2c1=O [P.7, 1-[6-[6-(3,5-difluorophenyl)-4-oxo-chromen-3-yl]-5-ethylsulfonyl-3-pyridyl]-cyclopropanecarbonitrile]
≥ 80%: mortality at 200 ppm [1] | percent control (mortality, anti-feedant effect or growth inhibition) at 200 ppm [2] | percent effect (mortality or growth inhibition) at 200 ppm [3]

CCS(=O)(=O)c1cc(C2(C#N)CC2)cnc1-c1coc2ccc(I)cc2c1=O [P.6, 1-[5-ethylsulfonyl-6-(6-iodo-4-oxo-chromen-3-yl)-3-pyridyl]cyclo-propanecarbonitrile]
≥ 80%: percent effect (mortality or growth inhibition) at 200 ppm [4] | mortality at 200 ppm [1] | percent effect (mortality or growth inhibition) at 200 ppm [5] | percent control (mortality, anti-feedant effect or growth inhibition) at 200 ppm [2] | percent control (mortality, anti-feedant effect or growth inhibition) at 200 ppm [6] | percent effect (mortality or growth inhibition) at 200 ppm [3]

CCS(=O)(=O)c1cc(C2(C#N)CC2)cnc1-c1coc2ccc(-c3ccc(F)cc3)cc2c1=O [P.8, 1-[5-ethylsulfonyl-6-[6-(4-fluorophenyl)-4-oxo-chromen-3-yl]-3-pyridyl]-cyclopropanecarbonitrile]
≥ 80%: percent effect (mortality or growth inhibition) at 200 ppm [5] | percent control (mortality, anti-feedant effect or growth inhibition) at 200 ppm [6]

CCS(=O)(=O)c1cc(C2(C#N)CC2)cnc1-c1coc2ccc(C(F)(F)F)cc2c1=O [P.1, 1-[5-ethylsulfonyl-6-[4-oxo-6-(trifluoromethyl)chromen-3-yl]-3-pyridyl]cyclopropanecarbonitrile]
≥ 80%: percent effect (mortality or growth inhibition) at 200 ppm [4] | mortality at 24 ppm [7] | mortality at 200 ppm [1] | percent effect (mortality or growth inhibition) at 200 ppm [5] | percent control (mortality, anti-feedant effect or growth inhibition) at 200 ppm [2] | percent control (mortality, anti-feedant effect or growth inhibition) at 200 ppm [6] | percent effect (mortality or growth inhibition) at 200 ppm [3]

CCS(=O)(=O)c1cc(C2(C#N)CC2)cnc1-c1coc2ccc(C#N)cc2c1=O [P.4, 3-[5-(1-cyanocyclopropyl)-3-ethylsulfonyl-2-pyridyl]-4-oxo-chromene-6-carbonitrile]
≥ 80%: mortality at 24 ppm [7] | percent effect (mortality or growth inhibition) at 200 ppm [5]

CCS(=O)(=O)c1cc(C2(C#N)CC2)cnc1-c1coc2ccc(F)cc2c1=O [P.2, 1-[5-ethylsulfonyl-6-(6-fluoro-4-oxo-chromen-3-yl)-3-pyridyl]cyclo-propanecarbonitrile]
≥ 80%: percent effect (mortality or growth inhibition) at 200 ppm [4] | mortality at 24 ppm [7] | percent effect (mortality or growth inhibition) at 200 ppm [5] | percent control (mortality, anti-feedant effect or growth inhibition) at 200 ppm [2] | percent control (mortality, anti-feedant effect or growth inhibition) at 200 ppm [6] | percent effect (mortality or growth inhibition) at 200 ppm [3]

CCS(=O)(=O)c1cc(C2(C#N)CC2)cnc1-c1coc2ccc(Cl)cc2c1=O [P.3, 1-[6-(6-chloro-4-oxo-chromen-3-yl)-5-ethylsulfonyl-3-pyridyl]-cyclopropanecarbonitrile]
≥ 80%: percent effect (mortality or growth inhibition) at 200 ppm [4] | mortality at 200 ppm [1] | percent effect (mortality or growth inhibition) at 200 ppm [5] | percent control (mortality, anti-feedant effect or growth inhibition) at 200 ppm [2] | percent control (mortality, anti-feedant effect or growth inhibition) at 200 ppm [6] | percent effect (mortality or growth inhibition) at 200 ppm [3]

CCS(=O)(=O)c1cc(C2(C#N)CC2)cnc1-c1coc2ccc(Br)cc2c1=O [P.5, 1-[6-(6-bromo-4-oxo-chromen-3-yl)-5-ethylsulfonyl-3-pyridyl]-cyclopropanecarbonitrile]
≥ 80%: percent effect (mortality or growth inhibition) at 200 ppm [4] | percent effect (mortality or growth inhibition) at 200 ppm [5] | percent control (mortality, anti-feedant effect or growth inhibition) at 200 ppm [2] | percent control (mortality, anti-feedant effect or growth inhibition) at 200 ppm [6] | percent effect (mortality or growth inhibition) at 200 ppm [3]
